# Patent US20260250318A1, “COMPOSITIONS AND METHODS FOR CROSSING THE BLOOD BRAIN BARRIER” (VOYAGER THERAPEUTICS, INC., priority 2022, published 2026)
# Tested on: brain
# Experiment: Matured TTM-001 and TTM-002 variants, NGS enrichment in mouse brain
# Assay type: in vivo, mice
# Conditions: NGS fold-enrichment, brain of mice, relative to AAV9 control
row,Sequence,"Fold Enrichment relative to AAV9, Brain (Mouse) [fold]"
1,KTINGSGSPHSKAQYIHT,59.649
2,KTIIGSGSPHSKAQNRHT,210.515
3,KTINGGGSPHSKAQTQQI,54.199
4,KTINGSGSPHSKRPEQQT,50.319
5,KTFKGSGSPHSKAPNQQT,71.144
6,KTISGGGSPHSKAQNQQN,87.761
7,KTEKASGSPHSKAQNQQT,90.390
8,KTINGGGSPHSKAQSQQI,67.651

# Same assay, conditions: NGS fold-enrichment, mouse brain, relative to AAV9 control
row,Sequence,"Fold Enrichment relative to AAV9, Brain (Mouse) [fold]"
1,KTINGHDSPHKSVQNHLN,14.557
2,KTINGSGSPHSKAQYIHT,59.649
3,KTIIGSGSPHSKAQNRHT,210.515
4,KTINGGGSPHSKAQTQQI,54.199
5,KTINGSGSPHSKRPEQQT,50.319
6,KTFKGSGSPHSKAPNQQT,71.144
7,KTINGPDSPHKIGQNQQS,10.055
8,KTEKASGSPHSKAQNQQT,90.390

# Same assay, conditions: mouse brain; relative to AAV9 control
row,Sequence,"Fold Enrichment relative to AAV9, Brain (Mouse) [fold]"
1,KTINGSGSPHSKAQVGHT,106.448
2,KQGEGSGSPHSKAQNQQT,135.300
3,KTEYISGSPHSKAQNQQT,57.620

# Tested on: brains, heart, liver, muscle, and DRG of the NHPs
# Experiment: Maturation of TTM-001 and TTM-002 capsids, NGS enrichment in NHP tissues
# Assay type: in vivo
# Conditions: NGS fold-enrichment of RNA, NHP brain, relative to AAV9 control
# Outline: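 Variants carry mutations within and flanking the loop IV peptide insert: positions 450–466 were triplet-randomized, while positions 449–466 received low-frequency point mutations. The combined pool went into two NHPs, and each peptide was scored by NGS enrichment ratio against AAV9.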
row,Sequence,"Fold Enrichment relative to AAV9, Brain (NHP) [fold]"
1,KTINGHDSPHKSVQNHLN,196.758
2,KTINGSGSPHSKAQYIHT,76.170
3,KTIIGSGSPHSKAQNRHT,217.176
4,KTINGGGSPHSKAQTQQI,92.345
5,KTINGSGSPHSKRPEQQT,80.418
6,KTFKGSGSPHSKAPNQQT,80.890
7,KTINGPDSPHKIGQNQQS,85.726
8,KTEKASGSPHSKAQNQQT,80.285

# Same assay, conditions: NGS fold-enrichment of matured AAV capsid variants; NHP brain, RNA; relative to AAV9 control
row,Sequence,"Fold Enrichment relative to AAV9, Brain (NHP) [fold]"
1,KTINGSGSPHSKAQVGHT,52.624
2,KQGEGSGSPHSKAQNQQT,58.752
3,KTEYISGSPHSKAQNQQT,57.891

# Same assay, conditions: NGS fold-enrichment, DRG of NHPs, relative to AAV9 control
row,Sequence,"Fold Enrichment relative to AAV9, DRG (NHP) [fold]"
1,KTINGSGSPHSKAQYIHT,0.000
2,KTIIGSGSPHSKAQNRHT,0.000
3,KTINGGGSPHSKAQTQQI,0.000
4,KTINGSGSPHSKRPEQQT,0.000
5,KTFKGSGSPHSKAPNQQT,0.000
6,KTISGGGSPHSKAQNQQN,0.000
7,KTEKASGSPHSKAQNQQT,0.000
8,KTINGGGSPHSKAQSQQI,0.000

# Same assay, conditions: NGS fold-enrichment, NHP DRG, relative to AAV9 control
row,Sequence,"Fold Enrichment relative to AAV9, DRG (NHP) [fold]"
1,KTINGHDSPHKSVQNHLN,0.000
2,KTINGSGSPHSKAQYIHT,0.000
3,KTIIGSGSPHSKAQNRHT,0.000
4,KTINGGGSPHSKAQTQQI,0.000
5,KTINGSGSPHSKRPEQQT,0.000
6,KTFKGSGSPHSKAPNQQT,0.000
7,KTINGPDSPHKIGQNQQS,0.000
8,KTEKASGSPHSKAQNQQT,0.000

# Same assay, conditions: NGS fold-enrichment, NHP heart, relative to AAV9 control
row,Sequence,"Fold Enrichment relative to AAV9, Heart (NHP) [fold]"
1,KTINGHDSPHKSVQNHLN,0.000
2,KTINGSGSPHSKAQYIHT,0.014
3,KTIIGSGSPHSKAQNRHT,0.000
4,KTINGGGSPHSKAQTQQI,0.000
5,KTINGSGSPHSKRPEQQT,0.013
6,KTFKGSGSPHSKAPNQQT,0.000
7,KTINGPDSPHKIGQNQQS,0.055
8,KTEKASGSPHSKAQNQQT,0.041

# Same assay, conditions: NGS fold-enrichment, NHP liver DNA, relative to AAV9 control
row,Sequence,"Fold Enrichment relative to AAV9, Liver DNA (NHP) [fold]"
1,KTINGHDSPHKSVQNHLN,0.000
2,KTINGSGSPHSKAQYIHT,0.168
3,KTIIGSGSPHSKAQNRHT,0.000
4,KTINGGGSPHSKAQTQQI,0.023
5,KTINGSGSPHSKRPEQQT,0.361
6,KTFKGSGSPHSKAPNQQT,0.017
7,KTINGPDSPHKIGQNQQS,0.063
8,KTEKASGSPHSKAQNQQT,0.261

# Same assay, conditions: NGS fold-enrichment, NHP liver RNA, relative to AAV9 control
row,Sequence,"Fold Enrichment relative to AAV9, Liver RNA (NHP) [fold]"
1,KTINGHDSPHKSVQNHLN,0.000
2,KTINGSGSPHSKAQYIHT,1.523
3,KTIIGSGSPHSKAQNRHT,0.000
4,KTINGGGSPHSKAQTQQI,0.000
5,KTINGSGSPHSKRPEQQT,0.149
6,KTFKGSGSPHSKAPNQQT,0.000
7,KTINGPDSPHKIGQNQQS,0.000
8,KTEKASGSPHSKAQNQQT,0.000

# Same assay, conditions: NGS fold-enrichment, NHP muscle, relative to AAV9 control
row,Sequence,"Fold Enrichment relative to AAV9, Muscle (NHP) [fold]"
1,KTINGHDSPHKSVQNHLN,0.000
2,KTINGSGSPHSKAQYIHT,0.033
3,KTIIGSGSPHSKAQNRHT,0.000
4,KTINGGGSPHSKAQTQQI,0.000
5,KTINGSGSPHSKRPEQQT,0.000
6,KTFKGSGSPHSKAPNQQT,0.000
7,KTINGPDSPHKIGQNQQS,0.171
8,KTEKASGSPHSKAQNQQT,0.000

# Same assay, conditions: NGS fold-enrichment, RNA, brain of NHPs, relative to AAV9 control
row,Sequence,"Fold Enrichment relative to AAV9, Brain (NHP) [fold]"
1,KTINGSGSPHSKAQYIHT,76.170
2,KTIIGSGSPHSKAQNRHT,217.176
3,KTINGGGSPHSKAQTQQI,92.345
4,KTINGSGSPHSKRPEQQT,80.418
5,KTFKGSGSPHSKAPNQQT,80.890
6,KTISGGGSPHSKAQNQQN,59.801
7,KTEKASGSPHSKAQNQQT,80.285
8,KTINGGGSPHSKAQSQQI,74.264

# Same assay, conditions: NGS fold-enrichment, heart of NHPs, relative to AAV9 control
row,Sequence,"Fold Enrichment relative to AAV9, Heart (NHP) [fold]"
1,KTINGSGSPHSKAQYIHT,0.014
2,KTIIGSGSPHSKAQNRHT,0.000
3,KTINGGGSPHSKAQTQQI,0.000
4,KTINGSGSPHSKRPEQQT,0.013
5,KTFKGSGSPHSKAPNQQT,0.000
6,KTISGGGSPHSKAQNQQN,0.000
7,KTEKASGSPHSKAQNQQT,0.041
8,KTINGGGSPHSKAQSQQI,0.000

# Same assay, conditions: NGS fold-enrichment, liver DNA of NHPs, relative to AAV9 control
row,Sequence,"Fold Enrichment relative to AAV9, Liver DNA (NHP) [fold]"
1,KTINGSGSPHSKAQYIHT,0.168
2,KTIIGSGSPHSKAQNRHT,0.000
3,KTINGGGSPHSKAQTQQI,0.023
4,KTINGSGSPHSKRPEQQT,0.361
5,KTFKGSGSPHSKAPNQQT,0.017
6,KTISGGGSPHSKAQNQQN,0.039
7,KTEKASGSPHSKAQNQQT,0.261
8,KTINGGGSPHSKAQSQQI,0.235

# Same assay, conditions: NGS fold-enrichment, liver RNA of NHPs, relative to AAV9 control
row,Sequence,"Fold Enrichment relative to AAV9, Liver RNA (NHP) [fold]"
1,KTINGSGSPHSKAQYIHT,1.523
2,KTIIGSGSPHSKAQNRHT,0.000
3,KTINGGGSPHSKAQTQQI,0.000
4,KTINGSGSPHSKRPEQQT,0.149
5,KTFKGSGSPHSKAPNQQT,0.000
6,KTISGGGSPHSKAQNQQN,0.722
7,KTEKASGSPHSKAQNQQT,0.000
8,KTINGGGSPHSKAQSQQI,0.000

# Same assay, conditions: NGS fold-enrichment, muscle of NHPs, relative to AAV9 control
row,Sequence,"Fold Enrichment relative to AAV9, Muscle (NHP) [fold]"
1,KTINGSGSPHSKAQYIHT,0.033
2,KTIIGSGSPHSKAQNRHT,0.000
3,KTINGGGSPHSKAQTQQI,0.000
4,KTINGSGSPHSKRPEQQT,0.000
5,KTFKGSGSPHSKAPNQQT,0.000
6,KTISGGGSPHSKAQNQQN,0.000
7,KTEKASGSPHSKAQNQQT,0.000
8,KTINGGGSPHSKAQSQQI,0.000

# Same assay, conditions: NHP DRG; relative to AAV9 control
row,Sequence,"Fold Enrichment relative to AAV9, DRG (NHP) [fold]"
1,KTINGSGSPHSKAQVGHT,0.000
2,KQGEGSGSPHSKAQNQQT,0.000
3,KTEYISGSPHSKAQNQQT,0.000

# Same assay, conditions: NHP heart; relative to AAV9 control
row,Sequence,"Fold Enrichment relative to AAV9, Heart (NHP) [fold]"
1,KTINGSGSPHSKAQVGHT,0.000
2,KQGEGSGSPHSKAQNQQT,0.000
3,KTEYISGSPHSKAQNQQT,0.000

# Same assay, conditions: NHP liver, DNA; relative to AAV9 control
row,Sequence,"Fold Enrichment relative to AAV9, Liver DNA (NHP) [fold]"
1,KTINGSGSPHSKAQVGHT,0.192
2,KQGEGSGSPHSKAQNQQT,0.151
3,KTEYISGSPHSKAQNQQT,0.075

# Same assay, conditions: NHP liver, RNA; relative to AAV9 control
row,Sequence,"Fold Enrichment relative to AAV9, Liver RNA (NHP) [fold]"
1,KTINGSGSPHSKAQVGHT,0.535
2,KQGEGSGSPHSKAQNQQT,0.000
3,KTEYISGSPHSKAQNQQT,0.076

# Same assay, conditions: NHP muscle; relative to AAV9 control
row,Sequence,"Fold Enrichment relative to AAV9, Muscle (NHP) [fold]"
1,KTINGSGSPHSKAQVGHT,0.006
2,KQGEGSGSPHSKAQNQQT,0.000
3,KTEYISGSPHSKAQNQQT,0.000
